Measurements taken from patent publication US12403174B2, “Immunomodulators” (Bristol-Myers Squibb Company, priority 2020, dated 2025).
*1 amine or outer side, *2 acyl side, *3 side chain or, on linkers, in order; H or OH if unused. Where a SMILES comes first, the peptide text is derived from it. Bridges are numbered along the chain shown (N, C = ends). [ ]: non-standard residue; d: D form. The star is where a group is joined. Trp(1-CH2COOH) = N[C@@H](Cc1cn(CC(=O)O)c2ccccc12)C(=O)O; X6 = CCOC(=O)Cn1cc(C[C@H](N[*:1])C(=O)[*:2])c2ccccc21; X3 = CCOC(=O)c1ccc(Nc2c(*)c(=O)c2=O)cc1; X8 = O=C(O)c1ccc(Nc2c(*)c(=O)c2=O)cc1; X1 = O=c1c(Nc2c(Cl)cccc2Cl)c(*)c1=O; Hyp = O=C(O)[C@@H]1C[C@@H](O)CN1; NMeNle = CCCC[C@H](NC)C(=O)O; X2 = CC(C)Oc1c(*)c(=O)c1=O; X5 = CN(C)c1c(*)c(=O)c1=O; NMeA = CN[C@@H](C)C(=O)O; Orn = NCCC[C@H](N)C(=O)O; X7 = CCOc1c(*)c(=O)c1=O; Dap = NC[C@H](N)C(=O)O; X4 = COc1c(*)c(=O)c1=O

Biological target: T1, PD-1/PD-L1 (Homo sapiens, UniProt Q9NZQ7)
T1 construct: TVMV protease site linker (C); made in house; host or cells: HEK293T cells
T1 sequence (Q9NZQ7 18-239): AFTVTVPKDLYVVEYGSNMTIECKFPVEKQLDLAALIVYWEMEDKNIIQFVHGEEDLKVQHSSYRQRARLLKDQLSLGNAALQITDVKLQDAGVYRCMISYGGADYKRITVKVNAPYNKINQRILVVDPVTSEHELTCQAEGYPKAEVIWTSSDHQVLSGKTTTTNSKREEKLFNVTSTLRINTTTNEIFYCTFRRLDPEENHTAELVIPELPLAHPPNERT
Assay: PD-1/PD-L1 Homogenous Time-Resolved Fluorescence (HTRF) binding assay
Settings: PD-L1-His 10 nM, PD-1-Ig 20 nM; soluble extracellular domains
From the text: The ability of the compounds of formula (I) to bind to PD-L1 was investigated using a PD-1/PD-L1 Homogenous Time-Resolved Fluorescence (HTRF) binding assay.
The interaction of PD-1 and PD-L1 can be assessed using soluble, purified preparations of the extracellular domains of the two proteins. The PD-1 and PD-L1 protein extracellular domains were expressed as fusion proteins with detection tags, for PD-1, the tag was the Fc portion of Immunoglobulin (PD-1-Ig) and for PD-L1 it was the 6 histidine motif (PD-L1-His). All binding studies were performed in an HTRF assay buffer consisting of dPBS supplemented with 0.1% […] bovine serum albumin and 0.05% (v/v) Tween-20. For the h/PD-L1-His binding assay, inhibitors were pre-incubated with PD-L1-His (10 nM final) for 15 m in 4 μl of assay buffer, followed by addition of PD-1-Ig (20 nM final) in 1 μl of assay buffer and further incubation for 15 m. HTRF detection was achieved using europium crypate-labeled anti-Ig (1 nM final) and allophycocyanin (APC) labeled anti-His (20 nM final). Antibodies were diluted in HTRF detection buffer and 5 μl was dispensed on top of the binding reaction. The reaction mixture was allowed to equilibrate for 30 minutes and the resulting signal (665 nm/620 nm ratio) was obtained using an EnVision fluorometer. Additional binding assays were established between the human proteins PD-1-Ig/PD-L2-His (20 & 5 nM, respectively) and CD80-His/PD-L1-Ig (100 & 10 nM, respectively).
Recombinant Proteins: Human PD-1 (25-167) with a C-terminal human Fc domain of immunoglobulin G (Ig) epitope tag [hPD-1 (25-167)-3S-IG] and human PD-L1 (18-239) with a C-terminal His epitope tag [hPD-L1(18-239)-TVMV-His] were expressed in HEK293T cells and purified sequentially by ProteinA affinity chromatography and size exclusion chromatography. Human PD-L2-His and CD80-His was obtained through commercial sources.
Table 1 lists the IC50 values for representative examples of this disclosure measured in the PD-1/PD-L1 Homogenous Time-Resolved Fluorescence (HTRF) binding assay.

| IC50 [nM] | Structure (SMILES) |
| --- | --- |
| 4.2 | CCCC[C@H]1C(=O)N(C)[C@@H](CCCC)C(=O)N[C@@H](CC(C)C)C(=O)N[C@H](C(=O)NCC(N)=O)CSCC(=O)N[C@@H](Cc2ccc(O)cc2)C(=O)N(C)[C@@H](C)C(=O)N[C@@H](CC(N)=O)C(=O)N2CCC[C@H]2C(=O)N[C@@H](CNc2c(OC)c(=O)c2=O)C(=O)N[C@@H](CC(C)C)C(=O)N2C[C@H](O)C[C@H]2C(=O)N[C@@H](Cc2c[nH]c3ccccc23)C(=O)N[C@@H](CCCNc2c(OC)c(=O)c2=O)C(=O)N[C@@H](Cc2cn(CC(=O)O)c3ccccc23)C(=O)N1C [Compound 1001] ({CH2CO}-Y[NMeA]NP[Dap](X4)L[Hyp]W[Orn](X4)[Trp(1-CH2COOH)][NMeNle][NMeNle]LCG-NH2; thioether N-14) |
| 3.6 | CCCC[C@H]1C(=O)N(C)[C@@H](CCCC)C(=O)N[C@@H](CC(C)C)C(=O)N[C@H](C(=O)NCC(N)=O)CSCC(=O)N[C@@H](Cc2ccc(O)cc2)C(=O)N(C)[C@@H](C)C(=O)N[C@@H](CC(N)=O)C(=O)N2CCC[C@H]2C(=O)N[C@@H](CNc2c(OC)c(=O)c2=O)C(=O)N[C@@H](CC(C)C)C(=O)N2C[C@H](O)C[C@H]2C(=O)N[C@@H](Cc2c[nH]c3ccccc23)C(=O)N[C@@H](CCCN)C(=O)N[C@@H](Cc2cn(CC(=O)O)c3ccccc23)C(=O)N1C [Compound 1002] ({CH2CO}-Y[NMeA]NP[Dap](X4)L[Hyp]W[Orn][Trp(1-CH2COOH)][NMeNle][NMeNle]LCG-NH2; thioether N-14) |
| 16 | CCCC[C@H]1C(=O)N(C)[C@@H](CCCC)C(=O)N[C@@H](CC(C)C)C(=O)N[C@H](C(=O)NCC(N)=O)CSCC(=O)N[C@@H](Cc2ccc(O)cc2)C(=O)N(C)[C@@H](C)C(=O)N[C@@H](CC(N)=O)C(=O)N2CCC[C@H]2C(=O)N[C@@H](CNc2c(OCC)c(=O)c2=O)C(=O)N[C@@H](CC(C)C)C(=O)N2C[C@H](O)C[C@H]2C(=O)N[C@@H](Cc2c[nH]c3ccccc23)C(=O)N[C@@H](CCCNc2c(OCC)c(=O)c2=O)C(=O)N[C@@H](Cc2cn(CC(=O)OCC)c3ccccc23)C(=O)N1C [Compound 1003] ({CH2CO}-Y[NMeA]NP[Dap](X7)L[Hyp]W[Orn](X7)[X6][NMeNle][NMeNle]LCG-NH2; thioether N-14) |
| 4.3 | CCCC[C@H]1C(=O)N(C)[C@@H](CCCC)C(=O)N[C@@H](CC(C)C)C(=O)N[C@H](C(=O)NCC(N)=O)CSCC(=O)N[C@@H](Cc2ccc(O)cc2)C(=O)N(C)[C@@H](C)C(=O)N[C@@H](CC(N)=O)C(=O)N2CCC[C@H]2C(=O)N[C@@H](CNc2c(N(C)C)c(=O)c2=O)C(=O)N[C@@H](CC(C)C)C(=O)N2C[C@H](O)C[C@H]2C(=O)N[C@@H](Cc2c[nH]c3ccccc23)C(=O)N[C@@H](CCCNc2c(N(C)C)c(=O)c2=O)C(=O)N[C@@H](Cc2cn(CC(=O)O)c3ccccc23)C(=O)N1C [Compound 1004] ({CH2CO}-Y[NMeA]NP[Dap](X5)L[Hyp]W[Orn](X5)[Trp(1-CH2COOH)][NMeNle][NMeNle]LCG-NH2; thioether N-14) |
| 1.4 | CCCC[C@H]1C(=O)N(C)[C@@H](CCCC)C(=O)N[C@@H](CC(C)C)C(=O)N[C@H](C(=O)NCC(N)=O)CSCC(=O)N[C@@H](Cc2ccc(O)cc2)C(=O)N(C)[C@@H](C)C(=O)N[C@@H](CC(N)=O)C(=O)N2CCC[C@H]2C(=O)N[C@@H](CNc2c(Nc3ccc(C(=O)OCC)cc3)c(=O)c2=O)C(=O)N[C@@H](CC(C)C)C(=O)N2C[C@H](O)C[C@H]2C(=O)N[C@@H](Cc2c[nH]c3ccccc23)C(=O)N[C@@H](CCCNc2c(Nc3ccc(C(=O)OCC)cc3)c(=O)c2=O)C(=O)N[C@@H](Cc2cn(CC(=O)O)c3ccccc23)C(=O)N1C [Compound 1005] ({CH2CO}-Y[NMeA]NP[Dap](X3)L[Hyp]W[Orn](X3)[Trp(1-CH2COOH)][NMeNle][NMeNle]LCG-NH2; thioether N-14) |
| 2.8 | CCCC[C@H]1C(=O)N(C)[C@@H](CCCC)C(=O)N[C@@H](CC(C)C)C(=O)N[C@H](C(=O)NCC(N)=O)CSCC(=O)N[C@@H](Cc2ccc(O)cc2)C(=O)N(C)[C@@H](C)C(=O)N[C@@H](CC(N)=O)C(=O)N2CCC[C@H]2C(=O)N[C@@H](CNc2c(Nc3c(Cl)cccc3Cl)c(=O)c2=O)C(=O)N[C@@H](CC(C)C)C(=O)N2C[C@H](O)C[C@H]2C(=O)N[C@@H](Cc2c[nH]c3ccccc23)C(=O)N[C@@H](CCCNc2c(Nc3c(Cl)cccc3Cl)c(=O)c2=O)C(=O)N[C@@H](Cc2cn(CC(=O)O)c3ccccc23)C(=O)N1C [Compound 1006] ({CH2CO}-Y[NMeA]NP[Dap](X1)L[Hyp]W[Orn](X1)[Trp(1-CH2COOH)][NMeNle][NMeNle]LCG-NH2; thioether N-14) |
| 1.6 | CCCC[C@H]1C(=O)N(C)[C@@H](CCCC)C(=O)N[C@@H](CC(C)C)C(=O)N[C@H](C(=O)NCC(N)=O)CSCC(=O)N[C@@H](Cc2ccc(O)cc2)C(=O)N(C)[C@@H](C)C(=O)N[C@@H](CC(N)=O)C(=O)N2CCC[C@H]2C(=O)N[C@@H](CNc2c(OC(C)C)c(=O)c2=O)C(=O)N[C@@H](CC(C)C)C(=O)N2C[C@H](O)C[C@H]2C(=O)N[C@@H](Cc2c[nH]c3ccccc23)C(=O)N[C@@H](CCCNc2c(OC(C)C)c(=O)c2=O)C(=O)N[C@@H](Cc2cn(CC(=O)O)c3ccccc23)C(=O)N1C [Compound 1007] ({CH2CO}-Y[NMeA]NP[Dap](X2)L[Hyp]W[Orn](X2)[Trp(1-CH2COOH)][NMeNle][NMeNle]LCG-NH2; thioether N-14) |
| 2.9 | CCCC[C@H]1C(=O)N(C)[C@@H](CCCC)C(=O)N[C@@H](CC(C)C)C(=O)N[C@H](C(=O)NCC(N)=O)CSCC(=O)N[C@@H](Cc2ccc(O)cc2)C(=O)N(C)[C@@H](C)C(=O)N[C@@H](CC(N)=O)C(=O)N2CCC[C@H]2C(=O)N[C@@H](CNc2c(Nc3ccc(C(=O)O)cc3)c(=O)c2=O)C(=O)N[C@@H](CC(C)C)C(=O)N2C[C@H](O)C[C@H]2C(=O)N[C@@H](Cc2c[nH]c3ccccc23)C(=O)N[C@@H](CCCNc2c(Nc3ccc(C(=O)O)cc3)c(=O)c2=O)C(=O)N[C@@H](Cc2cn(CC(=O)O)c3ccccc23)C(=O)N1C [Compound 1009] ({CH2CO}-Y[NMeA]NP[Dap](X8)L[Hyp]W[Orn](X8)[Trp(1-CH2COOH)][NMeNle][NMeNle]LCG-NH2; thioether N-14) |
